# Experimental data reported in the OligoGym collection.
# Oligonucleotides are written 5' to 3', each unit as a sugar letter and its base; * is a phosphorothioate linkage, no mark a phosphodiester; rarer units and linkages stand in square brackets, end groups in braces. Plain capitals give the bases only. d = 2'-deoxy (DNA); r = 2'-OH (RNA)
# Target: not listed separately
# Test: reporter assay of Huesken 2005
# Conditions: siRNA
# Further: test concentration or dose not given here.
row,Substance,normalised inhibition (eCFP-eYFP dual reporter)
1,sense rUrUrGrCrCrUrCrCrCrUrUrGrArGrGrCrGrUrCdTdT / antisense rGrArCrGrCrCrUrCrArArGrGrGrArGrGrCrArAdTdC,37.3%
2,sense rCrCrArGrArGrUrGrGrArArArCrUrCrArCrArCdTdT / antisense rGrUrGrUrGrArGrUrUrUrCrCrArCrUrCrUrGrGdTdG,95.3%
3,sense rCrUrUrCrUrGrArGrCrArArUrArUrCrCrCrCrAdTdT / antisense rUrGrGrGrGrArUrArUrUrGrCrUrCrArGrArArGdTdT,93%
4,sense rUrGrUrGrGrArCrUrCrUrGrArGrArArGrArArAdTdT / antisense rUrUrUrCrUrUrCrUrCrArGrArGrUrCrCrArCrAdAdG,85.5%
5,sense rGrCrCrUrArCrGrGrGrArGrUrCrArArArGrGrUdTdT / antisense rArCrCrUrUrUrGrArCrUrCrCrCrGrUrArGrGrCdGdT,91.5%
6,sense rGrCrCrCrUrCrCrUrGrUrGrArCrCrUrCrCrArUdTdT / antisense rArUrGrGrArGrGrUrCrArCrArGrGrArGrGrGrCdAdC,89%
7,sense rArCrCrCrUrUrUrArCrArGrArArCrArCrCrCrAdTdT / antisense rUrGrGrGrUrGrUrUrCrUrGrUrArArArGrGrGrUdGdG,86.5%
8,sense rCrCrArCrArUrGrGrUrGrUrGrGrArArUrCrUrGdTdT / antisense rCrArGrArUrUrCrCrArCrArCrCrArUrGrUrGrGdCdA,40.2%
9,sense rCrGrUrUrUrCrArUrUrGrUrUrCrCrUrGrUrGrAdTdT / antisense rUrCrArCrArGrGrArArCrArArUrGrArArArCrGdAdC,54.2%
10,sense rUrCrCrCrCrUrGrCrCrUrGrUrCrArGrGrGrGrUdTdT / antisense rArCrCrCrCrUrGrArCrArGrGrCrArGrGrGrGrAdAdA,42.2%
11,sense rUrUrUrArGrGrGrUrGrCrCrCrArCrUrUrArGrGdTdT / antisense rCrCrUrArArGrUrGrGrGrCrArCrCrCrUrArArAdAdG,48.8%
12,sense rGrGrUrGrGrCrUrCrUrGrUrCrUrCrUrCrUrGrCdTdT / antisense rGrCrArGrArGrArGrArCrArGrArGrCrCrArCrCdGdG,71.5%
13,sense rArArUrCrUrGrGrCrArGrArCrUrArCrArGrUrUdTdT / antisense rArArCrUrGrUrArGrUrCrUrGrCrCrArGrArUrUdCdC,81.7%
14,sense rUrGrCrCrCrArUrUrGrUrGrUrUrCrCrCrUrUrGdTdT / antisense rCrArArGrGrGrArArCrArCrArArUrGrGrGrCrAdGdG,95.4%
15,sense rUrCrArUrUrGrUrUrCrCrUrGrUrGrArArCrUrGdTdT / antisense rCrArGrUrUrCrArCrArGrGrArArCrArArUrGrAdAdA,66.7%
16,sense rCrArCrCrArGrArGrUrGrGrArArArCrUrCrArCdTdT / antisense rGrUrGrArGrUrUrUrCrCrArCrUrCrUrGrGrUrGdAdC,92.8%
17,sense rCrCrCrGrGrGrGrCrUrGrArGrArArArGrUrUrCdTdT / antisense rGrArArCrUrUrUrCrUrCrArGrCrCrCrCrGrGrGdAdT,85.4%
18,sense rUrGrCrCrUrCrCrCrUrUrGrArGrGrCrGrUrCrUdTdT / antisense rArGrArCrGrCrCrUrCrArArGrGrGrArGrGrCrAdAdT,34.1%
19,sense rCrUrUrGrCrCrUrCrUrGrArGrGrArArUrGrArGdTdT / antisense rCrUrCrArUrUrCrCrUrCrArGrArGrGrCrArArGdAdA,59.8%
20,sense rCrGrGrGrGrCrUrGrArGrArArArGrUrUrCrGrUdTdT / antisense rArCrGrArArCrUrUrUrCrUrCrArGrCrCrCrCrGdGdG,95.2%
21,sense rGrArGrArGrArGrCrArArCrArGrGrGrUrArUrGdTdT / antisense rCrArUrArCrCrCrUrGrUrUrGrCrUrCrUrCrUrCdCdC,85.5%
22,sense rGrArUrUrCrCrArCrCrArGrUrUrUrArGrArArGdTdT / antisense rCrUrUrCrUrArArArCrUrGrGrUrGrGrArArUrCdTdG,84%
23,sense rArGrUrGrArUrCrCrCrGrGrGrGrCrUrGrArGrAdTdT / antisense rUrCrUrCrArGrCrCrCrCrGrGrGrArUrCrArCrUdGdG,94.9%
24,sense rGrUrCrGrUrUrCrGrUrGrGrUrCrGrUrUrUrCrAdTdT / antisense rUrGrArArArCrGrArCrCrArCrGrArArCrGrArCdCdA,39.3%
25,sense rGrCrArArCrArGrGrGrUrArUrGrCrArCrArCrCdTdT / antisense rGrGrUrGrUrGrCrArUrArCrCrCrUrGrUrUrGrCdTdC,72.5%
26,sense rUrGrGrArUrUrUrArGrGrCrUrUrGrArGrGrGrAdTdT / antisense rUrCrCrCrUrCrArArGrCrCrUrArArArUrCrCrAdGdA,81.4%

row,Substance,normalised inhibition (eCFP-eYFP dual reporter)
1,sense rArCrUrGrArUrGrUrUrCrCrUrUrGrUrGrGrArCdTdT / antisense rGrUrCrCrArCrArArGrGrArArCrArUrCrArGrUdGdA,55.2%
2,sense rUrGrUrGrArCrCrUrCrCrArUrCrUrArCrUrCrUdTdT / antisense rArGrArGrUrArGrArUrGrGrArGrGrUrCrArCrAdGdG,96.8%
3,sense rUrGrUrGrUrGrCrUrUrCrCrUrCrUrCrCrCrArUdTdT / antisense rArUrGrGrGrArGrArGrGrArArGrCrArCrArCrAdGdT,104%
4,sense rGrArGrGrArCrUrCrCrUrUrCrCrUrUrCrUrCrUdTdT / antisense rArGrArGrArArGrGrArArGrGrArGrUrCrCrUrCdTdG,81.2%
5,sense rGrGrCrUrCrUrGrUrCrUrCrUrCrUrGrCrCrArCdTdT / antisense rGrUrGrGrCrArGrArGrArGrArCrArGrArGrCrCdAdC,45.8%
6,sense rArCrArCrCrArGrArGrCrCrUrGrCrCrCrCrArCdTdT / antisense rGrUrGrGrGrGrCrArGrGrCrUrCrUrGrGrUrGrUdGdA,72.8%
7,sense rArCrUrUrArArCrUrUrCrUrGrArGrCrArArUrAdTdT / antisense rUrArUrUrGrCrUrCrArGrArArGrUrUrArArGrUdAdA,90.7%
8,sense rGrGrCrArGrGrArGrArUrArGrCrCrCrArGrGrGdTdT / antisense rCrCrCrUrGrGrGrCrUrArUrCrUrCrCrUrGrCrCdAdC,67.7%
9,sense rGrUrCrCrCrUrGrArGrGrArGrCrCrCrUrUrArGdTdT / antisense rCrUrArArGrGrGrCrUrCrCrUrCrArGrGrGrArCdGdG,85.8%
10,sense rUrGrUrUrCrCrUrUrGrUrGrGrArCrUrCrUrGrAdTdT / antisense rUrCrArGrArGrUrCrCrArCrArArGrGrArArCrAdTdC,94.3%
11,sense rCrUrCrUrGrUrCrUrCrUrCrUrGrCrCrArCrArUdTdT / antisense rArUrGrUrGrGrCrArGrArGrArGrArCrArGrArGdCdC,62.3%
12,sense rGrGrCrArGrCrGrGrGrArGrArGrArGrCrArArCdTdT / antisense rGrUrUrGrCrUrCrUrCrUrCrCrCrGrCrUrGrCrCdCdC,61.9%
13,sense rGrArUrUrUrArGrGrCrUrUrGrArGrGrGrArGrAdTdT / antisense rUrCrUrCrCrCrUrCrArArGrCrCrUrArArArUrCdCdA,90.8%
14,sense rArGrCrGrGrGrArGrArGrArGrCrArArCrArGrGdTdT / antisense rCrCrUrGrUrUrGrCrUrCrUrCrUrCrCrCrGrCrUdGdC,43.5%
15,sense rCrArGrGrGrGrCrArGrCrGrGrGrArGrArGrArGdTdT / antisense rCrUrCrUrCrUrCrCrCrGrCrUrGrCrCrCrCrUrGdAdA,66.2%
16,sense rCrCrUrUrGrGrArArArCrGrArArCrCrArArGrCdTdT / antisense rGrCrUrUrGrGrUrUrCrGrUrUrUrCrCrArArGrGdGdA,85.8%
17,sense rUrArGrGrCrUrUrGrArGrGrGrArGrArGrUrUrGdTdT / antisense rCrArArCrUrCrUrCrCrCrUrCrArArGrCrCrUrAdAdA,76.7%
18,sense rArGrArCrUrArCrArGrUrUrUrCrUrUrUrCrCrCdTdT / antisense rGrGrGrArArArGrArArArCrUrGrUrArGrUrCrUdGdC,55.6%
19,sense rUrGrArArGrCrUrGrGrUrCrUrGrUrGrGrCrArGdTdT / antisense rCrUrGrCrCrArCrArGrArCrCrArGrCrUrUrCrAdGdA,44.4%
20,sense rArGrArArCrArCrCrCrArGrGrArArUrUrCrUrUdTdT / antisense rArArGrArArUrUrCrCrUrGrGrGrUrGrUrUrCrUdGdT,84.5%
21,sense rCrArGrGrGrUrArUrGrCrArCrArCrCrCrGrUrGdTdT / antisense rCrArCrGrGrGrUrGrUrGrCrArUrArCrCrCrUrGdTdT,70.6%
22,sense rArArUrGrArGrCrUrCrCrUrUrArCrUrUrArArCdTdT / antisense rGrUrUrArArGrUrArArGrGrArGrCrUrCrArUrUdCdC,70.8%
23,sense rGrGrCrUrUrUrGrGrArGrCrCrCrUrUrCrUrGrCdTdT / antisense rGrCrArGrArArGrGrGrCrUrCrCrArArArGrCrCdTdA,73.7%
24,sense rUrUrUrGrCrArGrUrUrGrGrArGrArUrUrCrArGdTdT / antisense rCrUrGrArArUrCrUrCrCrArArCrUrGrCrArArAdCdG,48.6%
25,sense rArUrUrGrUrUrCrCrUrGrUrGrArArCrUrGrUrGdTdT / antisense rCrArCrArGrUrUrCrArCrArGrGrArArCrArArUdGdA,76.9%

# Target: UBE2L6
# Test: reporter assay of Huesken 2005
# Conditions: siRNA
row,Substance,normalised inhibition (eCFP-eYFP dual reporter)
1,sense rUrGrArCrArCrArGrArArUrCrCrGrGrArGrCrUdTdT / antisense rArGrCrUrCrCrGrGrArUrUrCrUrGrUrGrUrCrAdGdC,54.8%
